Where two headings read alike, the source gives them in different places.
Key:
opiate addicts = details: cited from earlier work
clinical = details: human, plasma
[1] = system: patients with suspected opioid overdose; details: cited from earlier work
heroin overdose = details: cited from earlier work
[2] = Safety of intranasal naloxone in humans (Study 2): nasal irritation, adverse events, vital signs, ECG; assay type: in vivo, human
Excerpt: Specifically, the study had several objectives.
AEs were coded using the most recent version of the Medical Dictionary for Regulatory Activities (MedDRA) preferred terms and grouped by system, organ, class (SOC) designation. Separate summaries will be provided for the 5 study periods: after the administration of each dose of study drug up until the time of the next dose of study drug or clinic discharge. Listings of each individual AE including start date, stop date, severity, relationship, outcome, and duration were provided. Results are given below in Tables 12 and 13.

Question: Which “effectiveness of nasal administration compared with intravenous route” value (opiate addicts) does the source give for `C=CCN1CC[C@]23c4c5ccc(O)c4O[C@H]2C(=O)CC[C@@]3(O)[C@H]1C5` [naloxone, 17-allyl-4,5a-epoxy-3,14-dihydroxymorphinan-6-one] here?
Answer: Its value is “as effective as the intravenous route”.

Question: And the Cmax (clinical; female, im, 0.4 mg, 0.4 mg IM)?
Answer: Its Cmax is 1.06 ng/mL.

Question: And the Tmax (clinical; female, im, 0.4 mg, Tmax (median), 0.4 mg IM)?
Answer: Its Tmax is 19.8 min.

Question: What about the Tmax (clinical; female, other: intranasal (IN), 4 mg, Tmax (median), One 40 mg/mL IN, Female) of the same compound?
Answer: The Tmax was 30 min.

Question: And the Tmax (clinical; female, other: intranasal (IN), 8 mg, Tmax (median), Two 40 mg/mL IN, Female)?
Answer: Its Tmax is 17.4 min.

Question: What about the Cmax (clinical; female, other: intranasal, 2 mg, One 20 mg/mL IN, Female) of the same compound?
Answer: The Cmax was 2.79 ng/mL.

Question: And the Tmax (clinical; female, other: intranasal, 2 mg, Tmax (median), One 20 mg/mL IN, Female)?
Answer: The Tmax was 19.8 min.

Question: And the Cmax (clinical; female, other: intranasal, 4 mg, One 40 mg/mL IN, Female)?
Answer: Its Cmax is 5.12 ng/mL.

Question: What about the Cmax (clinical; female, other: intranasal, 4 mg, Two 20 mg/mL IN, Female) of the same compound?
Answer: The Cmax was 6.62 ng/mL.

Question: What about the Tmax (clinical; female, other: intranasal, 4 mg, Tmax (median), Two 20 mg/mL IN, Female) of the same compound?
Answer: The Tmax was 19.8 min.

Question: And the Cmax (clinical; female, other: intranasal, 8 mg, Two 40 mg/mL IN, Female)?
Answer: The Cmax was 9.52 ng/mL.

Question: And the Cmax (clinical; im, 0.4 mg, mean (% CV), 0.4 mg IM)?
Answer: Its Cmax is 0.906 ng/mL.

Question: What about the Tmax (clinical; im, 0.4 mg, Tmax (median, range), 0.4 mg IM) of the same compound?
Answer: Its Tmax is 25.2 min.

Question: And the Cmax (clinical; other: intranasal, 2 mg, mean (% CV), One Spray - 2 mg 20 mg/mL IN)?
Answer: Its Cmax is 3.11 ng/mL.

Question: What about the Tmax (clinical; other: intranasal, 2 mg, Tmax (median, range), One Spray - 2 mg 20 mg/mL IN) of the same compound?
Answer: The Tmax was 19.8 min.

Question: And the Cmax (clinical; other: intranasal, 4 mg, mean (% CV), One Spray - 4 mg 40 mg/mL IN)?
Answer: The Cmax was 5.34 ng/mL.

Question: What about the Cmax (clinical; other: intranasal, 4 mg, mean (% CV), Two Sprays - 4 mg 20 mg/mL IN) of the same compound?
Answer: The Cmax was 6.63 ng/mL.

Question: What about the Tmax (clinical; other: intranasal, 4 mg, Tmax (median, range), One Spray - 4 mg 40 mg/mL IN) of the same compound?
Answer: The Tmax was 30 min.

Question: And the Tmax (clinical; other: intranasal, 4 mg, Tmax (median, range), Two Sprays - 4 mg 20 mg/mL IN)?
Answer: The Tmax was 19.8 min.

Question: And the Cmax (clinical; other: intranasal, 8 mg, mean (% CV), Two Sprays - 8 mg 40 mg/mL IN)?
Answer: Its Cmax is 10.3 ng/mL.

Question: What about the Tmax (clinical; other: intranasal, 8 mg, Tmax (median, range), Two Sprays - 8 mg 40 mg/mL IN) of the same compound?
Answer: Its Tmax is 19.8 min.

Question: And the Cmax (clinical; male, im, 0.4 mg, 0.4 mg IM)?
Answer: The Cmax was 0.792 ng/mL.

Question: What about the Tmax (clinical; male, im, 0.4 mg, Tmax (median), 0.4 mg IM) of the same compound?
Answer: The Tmax was 30 min.

Question: What about the Tmax (clinical; male, other: intranasal (IN), 4 mg, Tmax (median), One 40 mg/mL IN, Male) of the same compound?
Answer: Its Tmax is 30 min.

Question: What about the Tmax (clinical; male, other: intranasal (IN), 8 mg, Tmax (median), Two 40 mg/mL IN, Male) of the same compound?
Answer: Its Tmax is 25.2 min.

Question: What about the Cmax (clinical; male, other: intranasal, 2 mg, One 20 mg/mL IN, Male) of the same compound?
Answer: Its Cmax is 3.35 ng/mL.

Question: And the Tmax (clinical; male, other: intranasal, 2 mg, Tmax (median), One 20 mg/mL IN, Male)?
Answer: Its Tmax is 19.8 min.

Question: And the Cmax (clinical; male, other: intranasal, 4 mg, One 40 mg/mL IN, Male)?
Answer: Its Cmax is 5.51 ng/mL.

Question: And the Cmax (clinical; male, other: intranasal, 4 mg, Two 20 mg/mL IN, Male)?
Answer: The Cmax was 6.64 ng/mL.

Question: What about the Tmax (clinical; male, other: intranasal, 4 mg, Tmax (median), Two 20 mg/mL IN, Male) of the same compound?
Answer: Its Tmax is 15 min.

Question: What about the Cmax (clinical; male, other: intranasal, 8 mg, Two 40 mg/mL IN, Male) of the same compound?
Answer: Its Cmax is 10.9 ng/mL.

Question: What about the “mean interval from EMS arrival to a respiratory rate of ≧10 breaths/min” value ([1]; naloxone 0.4 mg IV) of the same compound?
Answer: The value was 9.3 ± 4.2 min.

Question: And the “mean interval from EMS arrival to a respiratory rate of ≧10 breaths/min” value ([1]; naloxone 0.8 mg SQ)?
Answer: Its value is 9.6 ± 4.58 min.

Question: What about the “rate of response within 10 minutes” value (heroin overdose; 2 mg IM naloxone, 69/89) of the same compound?
Answer: The value was 77.5%.

Question: What about the “rate of response within 10 minutes” value (heroin overdose; 2 mg IN naloxone, 60/83) of the same compound?
Answer: The value was 72.3%.

Question: What about the “patients administered supplementary naloxone” value (heroin overdose; IM naloxone) of the same compound?
Answer: Its value is 4.5%.

Question: And the mean response time (heroin overdose; IN naloxone)?
Answer: Its mean response time is 8.0 min.

Question: And the mean response time (heroin overdose; IV naloxone)?
Answer: Its mean response time is 7.9 min.

Question: What about the “Dizziness (adverse events)” value ([2]; 0.4 mg Intramuscular Dose) of the same compound?
Answer: Its value is 1.

Question: And the “Headache (adverse events)” value ([2]; 0.4 mg Intramuscular Dose)?
Answer: Its value is 1.

Question: What about the “Nausea (adverse events)” value ([2]; 0.4 mg Intramuscular Dose) of the same compound?
Answer: Its value is 1.

Question: And the “Edema (events related to nasal irritation)” value (“Edema” below) ([2]; 2 mg (20 mg/mL, one spray))?
Answer: Its value is 2.

Question: And the “Erythema (events related to nasal irritation)” value (“Erythema” for short) ([2]; 2 mg (20 mg/mL, one spray))?
Answer: The value was 4.

Question: What about the “Nasal Pain (adverse events)” value ([2]; 2 mg (20 mg/mL, one spray)) of the same compound?
Answer: Its value is 1.

Question: What about the “Other (events related to nasal irritation)” value (“Other” for short) ([2]; 2 mg (20 mg/mL, one spray)) of the same compound?
Answer: The value was 1.

Question: What about the “Total (events related to nasal irritation)” value (from here on “Total”) ([2]; 2 mg (20 mg/mL, one spray)) of the same compound?
Answer: The value was 7.

Question: And the “Edema” value ([2]; 4 mg (20 mg/mL, two sprays))?
Answer: The value was 0.

Question: And the “Erythema” value ([2]; 4 mg (20 mg/mL, two sprays))?
Answer: The value was 1.

Question: And the “Other” value ([2]; 4 mg (20 mg/mL, two sprays))?
Answer: The value was 0.

Question: What about the “Total” value ([2]; 4 mg (20 mg/mL, two sprays)) of the same compound?
Answer: The value was 1.

Question: What about the “Edema” value ([2]; 4 mg (40 mg/mL, one spray)) of the same compound?
Answer: The value was 2.

Question: And the “Erythema” value ([2]; 4 mg (40 mg/mL, one spray))?
Answer: The value was 1.

Question: And the “Other” value ([2]; 4 mg (40 mg/mL, one spray))?
Answer: The value was 0.

Question: What about the “Total” value ([2]; 4 mg (40 mg/mL, one spray)) of the same compound?
Answer: Its value is 3.

Question: And the “Edema” value ([2]; 8 mg (40 mg/mL, two sprays))?
Answer: Its value is 1.

Question: And the “Erythema” value ([2]; 8 mg (40 mg/mL, two sprays))?
Answer: The value was 0.

Question: And the “Headache (adverse events)” value ([2]; 8 mg (40 mg/mL, two sprays))?
Answer: The value was 1.

Question: And the “Other” value ([2]; 8 mg (40 mg/mL, two sprays))?
Answer: Its value is 0.

Question: And the “Total” value ([2]; 8 mg (40 mg/mL, two sprays))?
Answer: The value was 1.

Question: What about the “Relation of nasal irritation to the dose of naloxone given” value ([2]; 2 to 8 mg IN) of the same compound?
Answer: The value was “did not appear to be positively related to the dose”.

Reference: patent US20160008277A1, “CO-PACKAGED DRUG PRODUCTS” (Lightlake Therapeutics Inc., priority 2014, published 2016)
